Results: patent US12448352B2, “Beta adrenergic agonist and methods of using the same” (Curasen Therapeutics, Inc., priority 2019, dated 2025)

Tests used:
[1] = Microsomal stability (rat); format: in vitro ADME; conditions: rat liver microsomes 0.5 mg/mL; read-out: Microsomal stability (in vitro CLint), Rat
Protocol: (§1) The master solution was prepared as follows.
(§2) Two separate experiments were performed as follows:
(§3) With NADPH: 10 μL of 20 mg/mL liver microsomes and 40 μL of 10 mM NADPH were added to the incubations. The final concentrations of microsomes and NADPH were 0.5 mg/mL and 1 mM, respectively.
(§4) Without NADPH: 10 μL of 20 mg/mL liver microsomes and 40 μL of ultra-pure H2O were added to the incubations. The final concentration of microsomes was 0.5 mg/mL.
(§5) The reaction was started with the addition of 4 μL of 3, 10, 30 and 100 μM test compound solution or control compound solution at the final concentration of 0.03, 0.1, 0.3 and 1 μM and carried out at 37° C.
(§6) Aliquots of 50 μL were taken from the reaction solution at 0, 15, 30, 45 and 60 min. The reaction was stopped by the addition of 4 volumes of cold acetonitrile with IS (100 nM alprazolam, 200 nM labetalol, 200 nM caffeine and 2 μM ketoprofen). Samples were centrifuged at 3, 220 g for 40 minutes. Aliquot of 100 μL of the supernatant was mixed with 100 μL of ultra-pure H2O and then used for LC-MS/MS analysis. […]
(§7) Peak areas were determined from extracted ion chromatograms. The slope value, k, was determined by linear regression of the natural logarithm of the remaining percentage of the parent drug vs. incubation time curve.
(§8) The in vitro half-life (in vitro t1/2) was determined from the slope value: […]

[2] = Microsomal stability (human); format: in vitro ADME; conditions: human liver microsomes 0.5 mg/mL; read-out: Microsomal stability (in vitro CLint), Human
Protocol: as §1, §2, §3, §4, §5, §6, §7, §8

[3] = Microsomal stability (dog); format: in vitro ADME; conditions: dog liver microsomes 0.5 mg/mL; read-out: Microsomal stability (in vitro CLint), Dog
Protocol: as §1, §2, §3, §4, §5, §6, §7, §8

[4] = Rat pharmacokinetic study (plasma); format: in vivo, male SD rats; conditions: IV 1 mg/kg
Protocol: The rat pharmacokinetics studies of exemplary compounds 03-3, 03-5, and 03-115 were conducted with male SD rats. These rats were typically about 6-8 weeks old, weighing 200 g to 300 g. Animals were fasted overnight and free access to food 4 hours after dosing. A required volume of vehicle was added to reach the target concentration of the test article and vehicle component to prepare for the dosing. The dosing vehicle was PEG400 or 30% PEG400 in saline for IV, or 0.5% methylcellulose in water for PO. For IV dosing, the animals were administered intravenously via tail vein. For PO dosing, the animals were administered via oral gavage. After dosing, blood sample was collected (˜0.2 mL per time point) through jugular vein or heart puncture. Blood of each sample was transferred into plastic micro centrifuge tubes containing EDTA-K2. Collection tubes with blood samples and anticoagulant were inverted several times for proper mixing of the tube contents and then placed on wet ice. The blood samples were centrifuged at 2000 g for 5 minutes at 4° C. to obtain plasma which was stored in a freezer at −75±15° C. prior to analysis. Samples were analyzed using LC-MS/MS. WinNonlin were used for pharmacokinetic calculations.

β1 adrenergic receptor = target: T1, β1 adrenergic receptor (Homo sapiens, UniProt P08588); assay: cAMP Gs dynamic HTRF assay, β1 expressing CHO cells; format: cell-based
T1 construct: expressed in transfected cells
T1 sequence (P08588 whole entry): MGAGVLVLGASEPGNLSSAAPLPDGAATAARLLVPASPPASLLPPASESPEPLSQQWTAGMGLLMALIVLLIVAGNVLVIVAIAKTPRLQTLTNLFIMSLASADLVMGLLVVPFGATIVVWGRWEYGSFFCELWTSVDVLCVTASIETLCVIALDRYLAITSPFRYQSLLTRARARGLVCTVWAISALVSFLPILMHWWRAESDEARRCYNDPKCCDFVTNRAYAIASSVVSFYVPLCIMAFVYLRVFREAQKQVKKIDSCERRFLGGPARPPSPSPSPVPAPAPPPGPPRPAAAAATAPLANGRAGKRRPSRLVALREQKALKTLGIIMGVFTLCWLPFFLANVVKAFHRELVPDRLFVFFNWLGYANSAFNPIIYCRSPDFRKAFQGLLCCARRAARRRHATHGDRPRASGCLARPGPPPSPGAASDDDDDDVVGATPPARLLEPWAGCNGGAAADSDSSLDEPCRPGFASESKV
Protocol: (§9) cAMP homogeneous time-resolved fluorescence (HTRF). Compound efficacy was determined using the cAMP Gs dynamic HTRF assay (Cisbio, catalog #62AM4PEC) largely following the manufacturer's instructions, also detailed below.
(§10) Compound preparation. […] Standard serial dilution curves were 10-point, 5-fold dilutions starting from a highest concentration of 10 μM. […] Assay plates were centrifuged at 500×g for 10 seconds. Compounds and IBMX were prepared at 2× final dose to compensate for addition of cells.
(§11) Cell preparation. […] Cells were harvested using assay PBS, counted manually by hemocytometer or by an automated cell counter, pelleted by centrifugation (200×g, 5 minutes) and resuspended in 37° C. […]
(§12) HTRF reagent addition, reading and data analysis. […] Plates were centrifuged again at 500×g for 10 seconds, and HTRF was measured using a Tecan Spark plate reader at 50 flashes per well. […] Potency estimates (EC50) were derived from the four-parameter nonlinear regression of the concentration-effect curve and an estimate of relative efficacy was determined by comparing the magnitude of the test compound HTRF signal window (min-max dose) with the signal window of the full agonist control, isoproterenol.

β2 adrenergic receptor = target: T2, β2 adrenergic receptor (Homo sapiens, UniProt P07550); assay: cAMP Gs dynamic HTRF assay, β2 expressing CHO cells; format: cell-based
T2 construct: expressed in transfected cells
T2 sequence (P07550 whole entry): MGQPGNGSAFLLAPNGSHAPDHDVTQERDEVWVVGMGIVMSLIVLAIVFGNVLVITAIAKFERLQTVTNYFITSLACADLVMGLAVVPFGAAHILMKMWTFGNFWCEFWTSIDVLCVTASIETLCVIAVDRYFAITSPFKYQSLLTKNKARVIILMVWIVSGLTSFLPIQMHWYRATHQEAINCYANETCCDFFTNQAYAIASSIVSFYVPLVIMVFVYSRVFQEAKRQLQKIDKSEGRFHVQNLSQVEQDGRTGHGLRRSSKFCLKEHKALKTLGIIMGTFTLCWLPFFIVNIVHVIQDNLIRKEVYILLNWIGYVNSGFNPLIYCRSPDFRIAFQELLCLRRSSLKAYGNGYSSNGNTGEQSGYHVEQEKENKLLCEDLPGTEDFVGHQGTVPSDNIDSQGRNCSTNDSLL
Protocol: as §9, §10, §11, §12

Compound | microsomal CLint [1] | microsomal CLint [2] | microsomal CLint [3] | AUClast [4] | Vss_obs [4] | EC50 (β1 adrenergic receptor) | EC50 (β2 adrenergic receptor)
CC(C)(C)NC[C@H](O)c1cccc(C(F)(F)F)n1 [Compound 03-3] | 3.48 µL/min/mg | 3.49 µL/min/mg | 7.99 µL/min/mg | 546 ng·h/mL | 2.92 L/kg |  | 
CC(C)(C)NC[C@H](O)c1cccc(C#N)n1 [Compound 03-5, (S)-6-(2-(tert-butylamino)-1-hydroxyethyl)picolinonitrile] | 2.53 µL/min/mg | 2.96 µL/min/mg | 4.32 µL/min/mg |  | 1.89 L/kg |  | 
COc1ccc(C[C@@H](C)NC[C@H](O)c2ccc(C3CC3)nc2C)cc1 [Compound 03-269] |  |  |  |  |  | 10 to 100 nM | < 10 nM
